Source: patent publication US20260183393A1, “IMMUNOSUPPRESSANT-RESISTANT MODIFIED ALLOGENEIC MODIFIED IMMUNE CELLS AND METHODS FOR USE THEREOF” (Beam Therapeutics Inc., priority 2023, published 2026)

B1: TSBT×6146: guide polynucleotide targeting PPIA (nucleic acid)
guide: CGTACCTGACACATAAACCCGTTTTAGAGCTAGAAATAGCAAGTTAAAATAAGGCTAGTCCGTTATCAACTTGAAAAAGTGGCACCGAGTCGGTGCTTTT
modifications: chemistry not given here
notes: guide polynucleotide targeting PPIA
B2: TSBT×6143: guide polynucleotide targeting PPIA (nucleic acid)
guide: GCCCGACCTCAAAGGAGACGGTTTTAGAGCTAGAAATAGCAAGTTAAAATAAGGCTAGTCCGTTATCAACTTGAAAAAGTGGCACCGAGTCGGTGCTTTT
modifications: chemistry not given here
notes: as for B1

How the values were obtained:
19CAR-T cells [1] = test: CAR-T cell proliferation assay; type: cell-based, human; details: corticosteroid treatment; JeKo-1 stimulation
Excerpt: Primary human T cells were activated using an anti-CD3/CD28/CD2 reagent. Two-days after being contacted with the reagent, the T cells were edited using a base editor system containing the guide polynucleotide TSBT×1538 and the base editor ABE8.20m using electroporation, as described above. Following electroporation, both the T cells were transduced with a lentiviral vector encoding an anti-CD19 CAR (19CAR) and allowed to expand in culture for approximately 7 days before being cryopreserved for later analysis. Unedited anti-CD19 CAR-T cells were prepared as a negative control. The 19CAR-T cells were then thawed from cryopreservation and rested overnight before being stimulated using dynabeads coated with recombinant human CD19 protein-coated at a bead-to-cell ratio of 1:1. The T cells were cultured in the presence of 100 nM of the immunosuppressant rapamycin or dimethylsulfoxide (DMSO) as a control for 6 days. The total number of T cells were enumerated using a NucleoCounter NC-200™ automated cell counter.
Primary human T cells were activated using an anti-CD3/CD28/CD2 reagent. Two days after being contacted with the reagent, the T cells were edited using a base editor system containing the guide polynucleotide TSBT×1538 and the base editor ABE8.20m using the electroporation protocol described above. Both edited and unedited T cells were transduced with a lentiviral vector encoding an anti-CD19 CAR (19CAR) and allowed to expand in culture for approximately 7 days before being cryopreserved for later analysis. Unedited 19CAR-T cells were used as a control. For analysis, the 19CAR-T cells were thawed and rested for 72 hours before labeling using a CellTrace™ Far Red (CTFR) dye. After CTFR labeling, the 19CAR-T cells were stimulated using an Immunocult™ Human CD3/CD28/CD2 universal T cell activator in the presence of 100 nM of the immunosuppressant agent rapamycin or in the presence of DMSO (control) and allowed to incubate for an additional 3 days. Following the three-day incubation, the T cells were analyzed using flow cytometry to measure dilution of CTFR dye as an indicator of cell proliferation.
The following day, T cells were washed, counted and 1×10^4 cells were seeded in triplicate into a 96-well flat bottom plate alone or with 1×10^4 JeKo-1.GFP^+ tumor cells. […] On day 7, samples were analyzed by flow cytometry and 19CAR-T cells were enumerated using CountBright Counting Beads (Thermo Fisher Scientific) following the manufacturer's protocol.

19CAR-T cells [2] = test: CAR-T cell cytokine production assay; type: cell-based, human; details: corticosteroid treatment; JeKo-1 stimulation; IFNg and TNFa
Description: (§1) 10. Monensin and Brefeldin A were added to the cell cultures to inhibit protein secretion for the duration of the stimulation. After the 6 hours, the cells were stained with reagents against 19CAR, CD4, CD8, IFNg, and TNFa, and the cells were also stained using a viability stain. Fluorescence activated cell sorting (FACS) was then used to measure intracellular levels of IFNg (y-axis) and TNFa (x-axis) in CD4^+ 19CAR-T cells. In FIG. 10, the numbers in each quadrant of each contour plot represent the percent of total cells counted that fell within the quadrant.
as §1, with “CD8^+” for “CD4^+”
The following day, T cells were washed, counted and 1×10^5 cells were seeded in duplicate into a 96-well flat bottom plate alone or with 2×10^5 JeKo-1.GFP^+ tumor cells. […] Cells were incubated for 6 hours total before analysis by flow cytometry.

donor T cells = details: 10 nM dose of AP1903; cells expressing iCasp9; cited from earlier work
endogenous NK cells = test: IL-15 treatment of HIS mice, elimination of HLA-deficient T cells; type: in vivo, BLT mice; details: 2.5 mg every 2-3 days, 6 total injections
Excerpt: FIGS. 20A to 20E provide plots, a schematic diagram, and a flow cytometry scatter plot showing human immune system (HIS) mice under-reconstituted human NK cells and necessitated IL-15 treatment to eliminate HLA-deficient T cells. FIG. 20A provides a plot showing frequency of human CD56^+ NK cells of CD45^+ cells in PBMCs from human donors (n=10), BLT-NSG mice (Cohort A, n=18; Cohort B, n=15; Cohort C, n=18) and huCD34^+ NCG mice (Cohort D, n=17; Cohort E, n=12; Cohort F, n=24; Cohort G, n=12). FIGS. 20B to 20E relate to an experiment where HIS mice were treated every 2-3 days with recombinant human IL-15 (2.5 mg) or PBS for 6 total injections. Mice were then coinfused 1:1 ratio with allogeneic CD4-based CAR-T cells that were base-edited for TCRKO (HLA+) or TCRKOb2MKOCIITAKO (HLA−). […] Statistical significance was calculated by Wilcoxon matched-pairs signed rank test (FIG. 20E).
For the study described in FIGS. 20A to 20E, BLT mice received intraperitoneal injections every 2-3 days of 2.5 mg recombinant human IL-15 (BioLegend; n=6) or sterile PBS (n=3) for 6 total injections. […] Persistence of 4CAR-T cells was monitored at 1-, 4- and 7-days post-T cell infusion via blood draw from the retro-orbital sinus. […] Persistence of 4CAR-T cells was monitored at 1-day post-T cell infusion and weekly thereafter via blood draw from submandibular vein.

PPIA protein = test: Flow cytometry of PPIA protein in edited T cells; type: cell-based, human; details: T cells edited with ABE8.20m and the guide, five days
Excerpt: FIG. 7 provides a set of overlaid flow cytometry histograms confirming knock-out of PPIA protein expression in primary human T cells edited using base editor systems containing
ABE8.20m and the guide polynucleotide TSBT×6143 or TSBT×6146 (see Table 1 for nucleotide sequences). Five days following being contacted with the base editor systems, the T cells were stained using LIVE/DEAD™ Fixable Near-Infra Red (NIR) stain (Thermo). The cells were then fixed and permeabilized followed by immunostaining using a primary antibody targeting PPIA (polyclonal Cyclophilin A Antibody from ProteinTech; 10720-1-AP). The cells were then contacted with a secondary antibody (polyclonal Goat anti-Rabbit IgG (H+L) Cross-Adsorbed Secondary Antibody labeled using Alexa Fluor™ 488 and available from Invitrogen; A-11008) and analyzed using flow cytometry. Unedited cells and isotype control antibody stained cells were used as controls representing high and low levels of PPIA protein, respectively. The x-axis of FIG. 7 indicates the level of PPIA protein measured. In FIG. 7, the y-axis represents cell counts normalized to the mode cell count measured for PPIA expression levels in a sample (i.e., the most frequently counted expression level was set to have a total cell count value (y-axis value) equal to 100).

Molecule | antigen-driven proliferation of FKBP1A^KO 19CAR-T cells (19CAR-T cells [1]) | cytokine production of FKBP1A^KO 19CAR-T cells (19CAR-T cells [2]) | PPIA expression (PPIA protein) | further results
C[C@@H]1C[C@H]2[C@@H]3CCC4=CC(=O)C=C[C@]4(C)[C@@]3(F)[C@@H](O)C[C@]2(C)[C@@]1(O)C(=O)CO [dexamethasone, Dexamethasone] | suppressed | suppressed | – | –
CC[C@H](C(=O)N1CCCC[C@H]1C(=O)O[C@H](CCc1ccc(OC)c(OC)c1)c1cccc(OCC(=O)NCCNC(=O)COc2cccc([C@@H](CCc3ccc(OC)c(OC)c3)OC(=O)[C@@H]3CCCCN3C(=O)[C@@H](CC)c3cc(OC)c(OC)c(OC)c3)c2)c1)c1cc(OC)c(OC)c(OC)c1 [AP1903] | – | – | – | apoptosis of donor T cells (donor T cells): approximately 99%
recombinant human IL-15: recombinant human IL-15 (BioLegend) | – | – | – | priming of endogenous NK cells against b2M^KO T cells (endogenous NK cells): prime endogenous NK cells against b2M^KO T cells in vivo
C[C@]12C=CC(=O)C=C1CC[C@@H]1[C@@H]2C(=O)C[C@@]2(C)[C@H]1CC[C@]2(O)C(=O)CO [prednisone, Prednisone] | suppressed | suppressed | – | –
B1 | – | – | Knock-out of PPIA expression | –
B2 | – | – | Knock-out of PPIA expression | –
